Laboratory results: US20200360331A1, “COMPOSITIONS COMPRISING 15-HEPE AND/OR 15-HETrE AND METHODS OF TREATING OR PREVENTING CARDIOMETABOLIC DISEASE, METABOLIC SYNDROME, AND/OR RELATED DISEASES” (Afimmune Limited, priority 2019, published 2020)
“Also recorded” adds a separate entry of the source.

Key:
[1] = UUO study: body weight, kidney weight, general condition; type: in vivo; conditions: UUO mice
Experimental: UUO Surgery: On day 0 of the study, UUO surgery was performed on mice under pentobarbital sodium anesthesia. The mouse's hair was first shaved and then abdomen cut open to exteriorize the mouse's left ureter. The ureter was ligated 4-0 nylon sutures at two points. The mouse's peritoneum and skin were then closed with sutures, and the mouse transferred to a clean cage until recovered from the anesthesia. Sham operated mice had their left ureter exposed but not ligated. […]
Animals: Seven-week-old female C57BL/6 mice (i.e., animals) were obtained from Japan SLC, Inc. (Japan) and were housed and fed with a normal diet (CE-2; CLEA Japan, Japan) under controlled conditions. The animals were maintained in a specific-pathogen free (SPF) facility under controlled conditions of temperature (e.g., 23±2° C.), humidity (e.g., 45±10%), lighting (e.g., 12-hour artificial light and dark cycles; light from 8:00 to 20:00) and air exchange. A high pressure was maintained in the experimental room to prevent contamination of the facility. The animals were housed in TPX cages (CLEA Japan) with a maximum of 4 mice per cage. Sterilized Paper-Clean (Japan SLC) was used for bedding and replaced once a week. Sterilized solid normal diet was provided ad libitum, being placed in a metal lid on the top of the cage. Pure water was also provided ad libitum from a water bottle equipped with a rubber stopper and a sipper tube. Water bottles were replaced once a week, cleaned, and sterilized in an autoclave and reused. Mice were identified by ear punch and each cage was labeled with a specific identification code.
Animal Monitoring and Sacrifice: The viability, clinical signs and behavior for the mice were monitored daily. Individual body weight was measured daily before treatment during the treatment period. […] The animals were sacrificed by exsanguination through direct cardiac puncture under isoflurane anesthesia (Pfizer Inc.) at Day 14.

[2] = tested on: BDL-operated mice; assay: BDL study: Sirius red staining of liver sections, fibrosis area; type: in vivo, C57BL/6J mice
Experimental: BDL Surgery: On Day 0 of the study, BDL surgery was performed under pentobarbital (Kyoritsu Seiyaku, Japan) anesthesia. The mouse's hair was first shaved, the abdominal cavity cut open, and the common bile duct was ligated twice with 7-0 surgical silk. The mouse's peritoneum and the skin were closed with sutures, and the mice were transferred to a clean cage (e.g., resting cage) until recovered from anesthesia. Sham operated mice had their common bile duct exposed but not ligated.
[…]: To visualize collagen deposition, Bouin's fixed liver sections were stained using picro-Sirius red solution (Waldeck, Germany). For quantitative analysis of fibrosis area, bright field images of Sirius red-stained sections were captured using a digital camera (DFC295, Leica, Germany) at 100-fold magnification, and the positive areas in 5 fields/section were measured using ImageJ software (National Institute of Health, USA).

[3] = tested on: NAFLD patients; assay: Phase IIa NAFLD study: hepatic fat by CAP; type: in vivo, human; conditions: patients diagnosed with NAFLD
Experimental: The study was planned to include 96 evaluable patients with 32 patients randomized per treatment group. […] Liver stiffness and CAP: Liver stiffness and CAP were assessed using transient elastography (e.g., FibroScan® 502 Touch model or equivalent). Patients were fasted and scanned at the same time of the day, if possible, for baseline (Week 0) and Visit 10 (Week 16). For this assessment the following conditions were met: patients were lying in dorsal decubitus position with the right arm in maximal abduction behind the head, in a similar position to that used for liver biopsy (LB); the tip of the transducer was placed on the skin between the ribs over the right lobe of the liver (the physician took the measurements with the probe placed in the intercostal space); during the FibroScan® examination the choice of M+ or XL+ probe was determined by the Automatic Probe Selection tool (APS) (If, the APS tool advises to use the “XL+ probe” or “switch” continuously between “M+ and XL+ probe”, only the XL+ probe was used); and the operator, assisted by an ultrasonic time motion image, located a portion of the liver which is free of large vascular structures (the depth of measurement was between 35-75 mm for the XL+ probe and 25-65 mm for the M+ probe and the explored volume will be 3 cm^3). […] The final stiffness and CAP values was recorded as median values of valid measurements.

[4] = tested on: TGF-β; assay: BDL study: quantitative RT-PCR of liver, TGF-β; type: in vivo, C57BL/6J mice; conditions: BDL mice liver
Experimental: Quantitative RT-PCR: Total ribonucleic acid (RNA) was extracted from liver samples using RNAiso (Takara Bio, Japan) according to the manufacturer's instructions. One μg of RNA was reverse-transcribed using a reaction mixture containing 4.4 mM magnesium chloride (MgCl2) (F. Hoffmann-La Roche, Switzerland), 40 U RNase inhibitor (Toyobo, Japan), 0.5 mM dNTP (Promega, USA), 6.28 μM random hexamer (Promega), 5× first strand buffer (Promega), 10 mM dithiothreitol (Invitrogen, USA) and 200 U MMLV-RT (Invitrogen) in a final volume of 20 μL. The reaction was carried out for 1 hour at 37° C., followed by 5 minutes at 99° C. Real-time PCR was performed using real-time PCR DICE and TB Green™ Premix Ex Taq™ II (Takara Bio). To calculate the relative mRNA expression level, the expression of each gene (α-SMA, TIMP-1, TGF-β and Collagen Type 1) was normalized to that of reference gene 36B4 (gene symbol: Rplp0). Information regarding the PCR-primer sets and the plate layout are described in Tables 8 and 9.

[5] = 50 mg/kg PO QD Day 0-13, Day 14
[6] = 500 mg/kg PO QD Day 0-13, Day 14

CC/C=C\CC(O)/C=C/C=C\C/C=C\C/C=C\CCCC(=O)O (stereo not shown) [DS102, 15-hydroxy-eicosa-5Z,8Z,11Z,13E,17Z-pentaenoic acid]
Left Kidney Weight [1, 5]: 469 ± 60 mg | Right Kidney Weight [1, 5]: 133 ± 10 mg | Left Kidney Weight [1, 6]: 487 ± 108 mg | Right Kidney Weight [1, 6]: 136 ± 6 mg | fibrosis area compared with the Vehicle group ([2]; BDL mice liver, 500 mg/kg): tended to decrease; also recorded: trend approaching significance | fibrosis area compared with the Vehicle group ([2]; BDL mice, liver, 50 mg/kg): no significant difference | Sirius red-positive area ([2]; BDL mice, liver, 50 mg/kg PO QD Day 0-13, Day 14): 1.70 ± 0.63% | fibrosis area compared with the Vehicle group ([2]; BDL mice, liver, 250 mg/kg): significant decrease | Sirius red-positive area ([2]; BDL mice, liver, 250 mg/kg PO QD Day 0-13, Day 14): 1.06 ± 0.48% | Sirius red-positive area ([2]; BDL mice, liver, 500 mg/kg PO QD Day 0-13, Day 14): 1.42 ± 0.60% | hepatic fat content as assessed by CAP [3]: reduced | TGF-β mRNA expression level compared with the Vehicle group ([4]; 500 mg/kg): significant decrease | TGF-β mRNA expression level vs Vehicle group ([4]; DS102 treatment groups): no significant differences | TGF-β gene expression ([4]; relative mRNA normalized to 36B4, 50 mg/kg PO QD Day 0-13): 1.48 ± 0.48 | TGF-β gene expression ([4]; relative mRNA normalized to 36B4, 250 mg/kg PO QD Day 0-13): 1.50 ± 0.44 | TGF-β gene expression ([4]; relative mRNA normalized to 36B4, 500 mg/kg PO QD Day 0-13): 1.00 ± 0.23
